Square brackets hold non-standard residues; d marks the D form. Peptide text beside a SMILES is read from it. Orn = NCCC[C@H](N)C(=O)O; βAla = NCCC(=O)O

Here are results for one molecule from PMC8639922, “KSHV transactivator-derived small peptide traps coactivators to attenuate MYC and inhibits leukemia and lymphoma cell growth” (Communications Biology, 2021).

Experiment [1] concerns BC-1. Description: Flow cytometry, apoptosis induction (Annexin V staining). In kind it is cell-based, human. As to conditions: BC-1, 24 h, AnnexinV+ 7AAD-. The procedure:
(§1) Leukoreduction system chambers (LRS) from healthy donors were purchased from Vitalant. Peripheral blood mononuclear cells (PBMCs) were prepared by a standard Ficoll gradient method. PBMCs along with THP-1 and BCBL-1 cell lines (2 × 10^6 cells/ml, 0.2 ml 10% FBS/RPMI/DMEM per well of a 96-well plate) were treated with various doses (0–256 μM) of either VGN50 peptide or control mutant peptide for 24 h. Cell death, apoptosis, and proliferation were analyzed by flow cytometry (BD Acuri) after intracellular staining with anti-humanKi67-Alexa488 (Biolegend, 1:100) along with the isotype control antibody, annexin-V-FITC with 7-AAD staining (Biolegend) according to the manufacture’s protocol, Live/dead Fixable Red Dead Cell staining kit (Invitrogen) according to the manufacture’s protocol, or MTT assay. Peptides were commercially synthesized (GenScript) with >90% purity with TFA removal.
(§2) AnnexinV+ 7AAD- % = apoptosis % […]
(§3) S-Figure 3. Flow cytometry analyses
(§4) (a) Apoptosis (%) was determined as Annexi nV+ 7AAD- popul at i on gat ed i n r ed shown i n
(§5) representative FACS plots of BCBL-1 cel l s t r eat ed wi t h PBS or VGN50 at 32µM. […]

Experiment [2] relates to BCBL-1. Described as above. The class given is cell-based, human. To be noted: BCBL-1, 24 h, AnnexinV+ 7AAD-. The procedure:
as §1, §2, §3, §4, §5

As to `CC(C)C[C@H](NC(=O)CCNC(=O)[C@H](CCCNC(=N)N)NC(=O)[C@H](CCCNC(=N)N)NC(=O)[C@H](CCCNC(=N)N)NC(=O)[C@H](CCCN)NC(=O)[C@H](CCCNC(=N)N)NC(=O)[C@H](CCCNC(=N)N)NC(=O)[C@H](CCCCN)NC(=O)[C@H](CCCCN)NC(=O)[C@H](N)CCCNC(=N)N)C(=O)N[C@@H](CO)C(=O)N[C@@H](CO)C(=O)N[C@@H](C)C(=O)N[C@@H](C)C(=O)N[C@@H](C)C(=O)NCC(=O)N[C@@H](CC(C)C)C(=O)N[C@@H](Cc1ccc(O)cc1)C(=O)N[C@@H](CCC(N)=O)C(=O)N[C@@H](CC(C)C)C(=O)N[C@@H](CC(=O)O)C(=O)N[C@H](C(=O)O)[C@@H](C)O` [Mt-P] (H-[dR]KKRR[Orn]RRR[βAla]LSSAAAGLYQLDT-OH; N-terminus and C-terminus assumed), the “AnnexinV+%” value in experiment [1] (replicate 1) was 4.73%; in experiment [1] (replicate 2), 4.24%; in experiment [1] (replicate 3) it was 4.01%; in experiment [2] (replicate 1), 3.66%; in experiment [2] (replicate 2), 5.9%; in experiment [2] (replicate 3) it was 4.52%.
